Laboratory results: the supplement of paper PMC10307832

What was measured:
Test in all cases: relative viability (nuclei count vs DMSO), 5 days (fraction); higher = more cells survive
NCI-H3122 = test system: NCI-H3122
How it was run: (§1)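 Relative viability is defined as nuclei in treated wells over nuclei in vehicle wells. Duplicate plates were run and medians reported. Lung cancer cell lines in 1536-well plates were dosed by pin tool one day after seeding, with one drug or with a fixed anchor-drug dose plus five library-drug doses (not always all listed) in √10 steps, and nuclei were counted after 5 days.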

NCI-H1355 = test system: NCI-H1355
How it was run: as §1

NCI-H1734 = test system: NCI-H1734
How it was run: as §1

NCI-H2085 = test system: NCI-H2085
How it was run: as §1

HCC-366 = test system: HCC-366
How it was run: as §1

ABC-1 = test system: ABC-1
How it was run: as §1

NCI-H2228 = test system: NCI-H2228
How it was run: as §1

ChaGo-K-1 = test system: ChaGo-K-1
How it was run: as §1

EPLC-272H = test system: EPLC-272H
How it was run: as §1

NCI-H1944 = test system: NCI-H1944
How it was run: as §1

SW 1573 = test system: SW 1573
How it was run: as §1

NCI-H2009 = test system: NCI-H2009
How it was run: as §1

NCI-H2023 = test system: NCI-H2023
How it was run: as §1

NCI-H2347 = test system: NCI-H2347
How it was run: as §1

HCC-15 = test system: HCC-15
How it was run: as §1

HCC-44 = test system: HCC-44
How it was run: as §1

LCLC-103H = test system: LCLC-103H
How it was run: as §1

COR-L23 = test system: COR-L23
How it was run: as §1

HCC-827 = test system: HCC-827
How it was run: as §1

PC-14 = test system: PC-14
How it was run: as §1

NCI-H2405 = test system: NCI-H2405
How it was run: as §1

NCI-H1793 = test system: NCI-H1793
How it was run: as §1

Structure (SMILES): CN1CCN(CCOc2cc(OC3CCOCC3)c3c(Nc4c(Cl)ccc5c4OCO5)ncnc3c2)CC1 [Saracatinib] + O=C(c1cc(Cc2n[nH]c(=O)c3ccccc23)ccc1F)N1CCN(C(=O)C2CC2)CC1 [Olaparib] (partner 8 µM)
- relative viability (NCI-H3122; first compound 0.02 µM): 0.62
- relative viability (NCI-H3122; first compound 0.2 µM): 0.485
- relative viability (NCI-H3122; first compound 0.6325 µM): 0.682
- relative viability (NCI-H3122; first compound 2 µM): 0.528
- relative viability (NCI-H1355; first compound 0.02 µM): 0.796
- relative viability (NCI-H1355; first compound 0.2 µM): 0.692
- relative viability (NCI-H1355; first compound 0.6325 µM): 0.817
- relative viability (NCI-H1355; first compound 2 µM): 0.706
- relative viability (NCI-H1734; first compound 0.02 µM): 0.592
- relative viability (NCI-H1734; first compound 0.6325 µM): 0.515
- relative viability (NCI-H1734; first compound 2 µM): 0.547
- relative viability (NCI-H2085; first compound 0.02 µM): 0.802
- relative viability (NCI-H2085; first compound 0.2 µM): 0.602
- relative viability (NCI-H2085; first compound 0.6325 µM): 0.821
- relative viability (NCI-H2085; first compound 2 µM): 0.863
- relative viability (HCC-366; first compound 0.02 µM): 0.343
- relative viability (HCC-366; first compound 0.2 µM): 0.0912
- relative viability (HCC-366; first compound 0.6325 µM): 0.264
- relative viability (HCC-366; first compound 2 µM): 0.199
- relative viability (ABC-1; first compound 0.02 µM): 0.568
- relative viability (ABC-1; first compound 0.2 µM): 0.941
- relative viability (ABC-1; first compound 0.6325 µM): 0.706
- relative viability (ABC-1; first compound 2 µM): 0.751
- relative viability (NCI-H2228; first compound 0.02 µM): 0.966
- relative viability (NCI-H2228; first compound 0.2 µM): 0.617
- relative viability (NCI-H2228; first compound 0.6325 µM): 0.475
- relative viability (NCI-H2228; first compound 2 µM): 0.568
- relative viability (ChaGo-K-1; first compound 0.02 µM): 0.423
- relative viability (ChaGo-K-1; first compound 0.2 µM): 0.28
- relative viability (ChaGo-K-1; first compound 0.6325 µM): 0.413
- relative viability (ChaGo-K-1; first compound 2 µM): 0.449
- relative viability (EPLC-272H; first compound 0.02 µM): 0.946
- relative viability (EPLC-272H; first compound 0.2 µM): 0.714
- relative viability (EPLC-272H; first compound 0.6325 µM): 0.658
- relative viability (EPLC-272H; first compound 2 µM): 0.426
- relative viability (NCI-H1944; first compound 0.02 µM): 0.406
- relative viability (NCI-H1944; first compound 0.2 µM): 0.344
- relative viability (NCI-H1944; first compound 0.6325 µM): 0.44
- relative viability (NCI-H1944; first compound 2 µM): 0.358
- relative viability (SW 1573; first compound 0.02 µM): 0.502
- relative viability (SW 1573; first compound 0.2 µM): 0.382
- relative viability (SW 1573; first compound 0.6325 µM): 0.448
- relative viability (SW 1573; first compound 2 µM): 0.384
- relative viability (NCI-H2009; first compound 0.02 µM): 0.709
- relative viability (NCI-H2009; first compound 0.2 µM): 0.477
- relative viability (NCI-H2009; first compound 0.6325 µM): 0.688
- relative viability (NCI-H2009; first compound 2 µM): 0.724
- relative viability (NCI-H2023; first compound 0.02 µM): 0.503
- relative viability (NCI-H2023; first compound 0.6325 µM): 0.417
- relative viability (NCI-H2023; first compound 2 µM): 0.393
- relative viability (NCI-H2347; first compound 0.02 µM): 0.571
- relative viability (NCI-H2347; first compound 0.2 µM): 0.428
- relative viability (NCI-H2347; first compound 0.6325 µM): 0.622
- relative viability (NCI-H2347; first compound 2 µM): 0.551
- relative viability (HCC-15; first compound 0.02 µM): 0.717
- relative viability (HCC-15; first compound 0.2 µM): 0.634
- relative viability (HCC-15; first compound 0.6325 µM): 0.79
- relative viability (HCC-15; first compound 2 µM): 0.752
- relative viability (HCC-44; first compound 0.02 µM): 0.979
- relative viability (HCC-44; first compound 0.2 µM): 0.863
- relative viability (HCC-44; first compound 0.6325 µM): 0.97
- relative viability (HCC-44; first compound 2 µM): 0.976
- relative viability (LCLC-103H; first compound 0.02 µM): 0.796
- relative viability (LCLC-103H; first compound 0.2 µM): 0.71
- relative viability (LCLC-103H; first compound 0.6325 µM): 0.758
- relative viability (LCLC-103H; first compound 2 µM): 0.807
- relative viability (COR-L23; first compound 0.02 µM): 0.447
- relative viability (COR-L23; first compound 0.2 µM): 0.319
- relative viability (COR-L23; first compound 0.6325 µM): 0.346
- relative viability (COR-L23; first compound 2 µM): 0.312
- relative viability (HCC-827; first compound 0.02 µM): 0.66
- relative viability (HCC-827; first compound 0.2 µM): 0.532
- relative viability (HCC-827; first compound 0.6325 µM): 0.192
- relative viability (HCC-827; first compound 2 µM): 0.16
- relative viability (PC-14; first compound 0.02 µM): 0.263
- relative viability (PC-14; first compound 0.2 µM): 0.261
- relative viability (PC-14; first compound 0.6325 µM): 0.201
- relative viability (PC-14; first compound 2 µM): 0.117
- relative viability (NCI-H2405; first compound 0.02 µM): 0.873
- relative viability (NCI-H2405; first compound 0.2 µM): 0.84
- relative viability (NCI-H2405; first compound 0.6325 µM): 0.673
- relative viability (NCI-H2405; first compound 2 µM): 0.595
- relative viability (NCI-H1793; first compound 0.02 µM): 0.872
- relative viability (NCI-H1793; first compound 0.2 µM): 0.498
- relative viability (NCI-H1793; first compound 0.6325 µM): 0.777
- relative viability (NCI-H1793; first compound 2 µM): 0.564
